Assay results from paper PMC11242993, “Evaluation of the Therapeutic Potential of Sulfonyl Urea Derivatives as Soluble Epoxide Hydrolase (sEH) Inhibitors” (Molecules, 2024).

Tested on: C57BL/6J male mice
Assay: Tail-flick reflex model
Type: in vivo
Conditions: single intraperitoneal injection at 10 mg/kg
Method: A tail-flick reflex test was performed as previously described. The parameters of the tail-flick instrument (7360, Ugo Basile Instruments, Varese, Italy) were set up to keep the baseline at 2.5–4.0 s. Mice were fixed and the part about 1.5–2 cm away from the tail of the mouse was aligned with the infrared emission hole of the instrument. […] Latencies of mice of less than 2 s or more than 5 s were excluded. […] The cut-off time in the tail-flick reflex test was set at 8 s to avoid sensitization and damage to the skin and to achieve the maximum possible effect (MPE%) = (measured value − basic value) × 100/(cut-off − basic value). C57BL/6J male mice obtained from The Jackson Laboratory (Bar Harbor, ME, USA) weighing 28 g were used for the tail-flick test. Animal procedures were conducted following the rules and regulations of the Institutional Animal Care and Use Committee of the National Institute on Alcohol Abuse and Alcoholism (NIAAA) under the protocols of LPS-GK1.

SMILES: O=C(NC12CC3CC(CC(C3)C1)C2)NS(=O)(=O)c1ccc(OC(F)(F)F)cc1 [Compound 4f]
- analgesic activity in tail-flick model: significant efficacy
